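Interpolation was linear, between the two tested concentrations surrounding the appropriate level; five concentrations were tested over 48 hours in 96-well plates. GI50 marks 50% less growth. TGI denotes the concentration required for complete inhibition of growth.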
Legend:
Test in all cases: growth of human tumour cells (NCI), 48 h
CCRF-CEM leukemia = tested on: CCRF-CEM leukemia
CAKI-1 renal = tested on: CAKI-1 renal
MALME-3M melanoma = tested on: MALME-3M melanoma
LOX IMVI melanoma = tested on: LOX IMVI melanoma
A549 NSCLC = tested on: A549 NSCLC
MDA-MB-435 = tested on: MDA-MB-435
PC-3 prostate = tested on: PC-3 prostate
RPMI-8226 leukemia = tested on: RPMI-8226 leukemia
SNB-75 CNS = tested on: SNB-75 CNS
SK-OV-3 ovarian = tested on: SK-OV-3 ovarian
OVCAR-4 ovarian = tested on: OVCAR-4 ovarian
OVCAR-3 ovarian = tested on: OVCAR-3 ovarian
SK-MEL-28 melanoma = tested on: SK-MEL-28 melanoma
SF-295 CNS = tested on: SF-295 CNS
DU-145 prostate = tested on: DU-145 prostate
HOP-62 NSCLC = tested on: HOP-62 NSCLC
TK-10 renal = tested on: TK-10 renal
SK-MEL-2 melanoma = tested on: SK-MEL-2 melanoma
NCI-H460 lung = tested on: NCI-H460 lung
HL-60(TB) leukemia = tested on: HL-60(TB) leukemia
OVCAR-5 ovarian = tested on: OVCAR-5 ovarian
IGROV1 ovarian = tested on: IGROV1 ovarian
HT29 colon = tested on: HT29 colon
HCT-116 colon = tested on: HCT-116 colon
ACHN renal = tested on: ACHN renal
MCF7 breast = tested on: MCF7 breast
NCI-H522 lung = tested on: NCI-H522 lung
OVCAR-8 ovarian = tested on: OVCAR-8 ovarian
SF-268 CNS = tested on: SF-268 CNS
NCI-H23 lung = tested on: NCI-H23 lung
MOLT-4 leukemia = tested on: MOLT-4 leukemia
SF-539 CNS = tested on: SF-539 CNS
BT-549 breast = tested on: BT-549 breast
SR leukemia = tested on: SR leukemia
RXF 393 renal = tested on: RXF 393 renal
SK-MEL-5 melanoma = tested on: SK-MEL-5 melanoma
EKVX NSCLC = tested on: EKVX NSCLC
HS 578T breast = tested on: HS 578T breast
NCI-H226 lung = tested on: NCI-H226 lung
COLO 205 colon = tested on: COLO 205 colon
MDA-MB-231 breast = tested on: MDA-MB-231 breast
SNB-19 CNS = tested on: SNB-19 CNS
U251 CNS = tested on: U251 CNS
HOP-92 NSCLC = tested on: HOP-92 NSCLC
SW-620 colon = tested on: SW-620 colon
NCI/ADR-RES ovarian = tested on: NCI/ADR-RES ovarian
KM12 colon = tested on: KM12 colon
HCC-2998 colon = tested on: HCC-2998 colon
UACC-62 melanoma = tested on: UACC-62 melanoma
K-562 leukemia = tested on: K-562 leukemia
HCT-15 colon = tested on: HCT-15 colon
SN12C renal = tested on: SN12C renal
T-47D breast = tested on: T-47D breast
786-0 renal = tested on: 786-0 renal
UO-31 renal = tested on: UO-31 renal
A498 renal = tested on: A498 renal

With CCOc1ccccc1C(=O)/C=C/c1cc2ccccc2[nH]c1=O the GI50 (CCRF-CEM leukemia) was 29 nM, the TGI (CCRF-CEM leukemia) was greater than 100000 nM and the GI50 (CAKI-1 renal) was 25.8 nM. For the same compound, the TGI (CAKI-1 renal) was 1490 nM, the GI50 (MALME-3M melanoma) was 23.8 nM and the TGI (MALME-3M melanoma) was 1880 nM. The GI50 (LOX IMVI melanoma) was 44.3 nM, the TGI (LOX IMVI melanoma) was 1060 nM and the GI50 (A549 NSCLC) was 74.1 nM. The TGI (A549 NSCLC) was 12400 nM, the GI50 (MDA-MB-435) was less than 10 nM and the TGI (MDA-MB-435) was 13.9 nM. For the same compound, the GI50 (PC-3 prostate) was 41.3 nM, the TGI (PC-3 prostate) was 2760 nM and the GI50 (RPMI-8226 leukemia) was 28.4 nM. It also gave a TGI (RPMI-8226 leukemia) of 991 nM, a GI50 (SNB-75 CNS) of 20.9 nM and a TGI (SNB-75 CNS) of 76.6 nM. The GI50 (SK-OV-3 ovarian) was 106 nM, the TGI (SK-OV-3 ovarian) was 15200 nM and the GI50 (OVCAR-4 ovarian) was 144 nM. The TGI (OVCAR-4 ovarian) was 6240 nM, the GI50 (OVCAR-3 ovarian) was 24.5 nM and the TGI (OVCAR-3 ovarian) was 108 nM. For the same compound, the GI50 (SK-MEL-28 melanoma) was 324 nM, the TGI (SK-MEL-28 melanoma) was 2160 nM and the GI50 (SF-295 CNS) was 31.1 nM. It also gave a TGI (SF-295 CNS) of 1280 nM, a GI50 (DU-145 prostate) of 38 nM and a TGI (DU-145 prostate) of 905 nM. It also gave a GI50 (HOP-62 NSCLC) of 67.8 nM, a TGI (HOP-62 NSCLC) of 3470 nM and a GI50 (TK-10 renal) of 438 nM. It also gave a TGI (TK-10 renal) of 2930 nM, a GI50 (SK-MEL-2 melanoma) of 65.7 nM and a TGI (SK-MEL-2 melanoma) of 3020 nM. The GI50 (NCI-H460 lung) was 33.2 nM, the TGI (NCI-H460 lung) was 349 nM and the GI50 (HL-60(TB) leukemia) was 13 nM. For the same compound, the TGI (HL-60(TB) leukemia) was 59 nM, the GI50 (OVCAR-5 ovarian) was 193 nM and the TGI (OVCAR-5 ovarian) was 1440 nM. For the same compound, the GI50 (IGROV1 ovarian) was 56.4 nM, the TGI (IGROV1 ovarian) was 1860 nM and the GI50 (HT29 colon) was 23.2 nM. For the same compound, the TGI (HT29 colon) was 2060 nM, the GI50 (HCT-116 colon) was less than 22.9 nM and the TGI (HCT-116 colon) was 1170 nM. It also gave a GI50 (ACHN renal) of 60.3 nM, a TGI (ACHN renal) of 1730 nM and a GI50 (MCF7 breast) of 35.6 nM. The TGI (MCF7 breast) was 1410 nM, the GI50 (NCI-H522 lung) was 30.8 nM and the TGI (NCI-H522 lung) was 1830 nM. It also gave a GI50 (OVCAR-8 ovarian) of 50.7 nM, a TGI (OVCAR-8 ovarian) of 2080 nM and a GI50 (SF-268 CNS) of 86 nM. It also gave a TGI (SF-268 CNS) of 1850 nM, a GI50 (NCI-H23 lung) of 72.9 nM and a TGI (NCI-H23 lung) of 1770 nM. It also gave a GI50 (MOLT-4 leukemia) of 38.5 nM, a TGI (MOLT-4 leukemia) of 4430 nM and a GI50 (SF-539 CNS) of 29.4 nM. For the same compound, the TGI (SF-539 CNS) was 129 nM, the GI50 (BT-549 breast) was 72 nM and the TGI (BT-549 breast) was 1410 nM. It also gave a GI50 (SR leukemia) of less than 10 nM, a TGI (SR leukemia) greater than 100000 nM and a GI50 (RXF 393 renal) of 32.2 nM. For the same compound, the TGI (RXF 393 renal) was 340 nM, the GI50 (SK-MEL-5 melanoma) was 43.1 nM and the TGI (SK-MEL-5 melanoma) was 1310 nM. For the same compound, the GI50 (EKVX NSCLC) was 172 nM, the TGI (EKVX NSCLC) was 1990 nM and the GI50 (HS 578T breast) was 22.2 nM. For the same compound, the TGI (HS 578T breast) was 93.3 nM, the GI50 (NCI-H226 lung) was 202 nM and the TGI (NCI-H226 lung) was 6490 nM. For the same compound, the GI50 (COLO 205 colon) was 37.1 nM, the TGI (COLO 205 colon) was 643 nM and the GI50 (MDA-MB-231 breast) was 77.4 nM. For the same compound, the TGI (MDA-MB-231 breast) was 2010 nM, the GI50 (SNB-19 CNS) was 45.9 nM and the TGI (SNB-19 CNS) was 1340 nM. It also gave a GI50 (U251 CNS) of 39.7 nM, a TGI (U251 CNS) of 1330 nM and a GI50 (HOP-92 NSCLC) of 77.8 nM. For the same compound, the TGI (HOP-92 NSCLC) was 1410 nM, the GI50 (SW-620 colon) was 19.4 nM and the TGI (SW-620 colon) was 1160 nM. It also gave a GI50 (NCI/ADR-RES ovarian) of 23.4 nM, a TGI (NCI/ADR-RES ovarian) of 14400 nM and a GI50 (KM12 colon) of 35.5 nM. For the same compound, the TGI (KM12 colon) was 570 nM, the GI50 (HCC-2998 colon) was 126 nM and the TGI (HCC-2998 colon) was 654 nM. The GI50 (UACC-62 melanoma) was 42.3 nM, the TGI (UACC-62 melanoma) was 1930 nM and the GI50 (K-562 leukemia) was less than 10 nM. For the same compound, the TGI (K-562 leukemia) was greater than 100000 nM, the GI50 (HCT-15 colon) was 33.9 nM and the TGI (HCT-15 colon) was 1220 nM. The GI50 (SN12C renal) was 96.1 nM, the TGI (SN12C renal) was 1630 nM and the GI50 (T-47D breast) was 271 nM. The TGI (T-47D breast) was 19600 nM, the GI50 (786-0 renal) was 39.9 nM and the TGI (786-0 renal) was 1330 nM. It also gave a GI50 (UO-31 renal) of 61.1 nM, a TGI (UO-31 renal) of 1590 nM and a GI50 (A498 renal) of 14.7 nM. The TGI (A498 renal) was 81.3 nM.

Reference: PubChem BioAssay (NCI)
